According to US7662810B2, “2-arylmethylazetidine carbapenem derivatives and preparation thereof” (Korea Research Institute of Chemical Technology, priority 2004, dated 2010):
Like-named read-outs stand apart in the source and are kept apart here.

Columns and labels:
[1] = target: T1, Dihydropeptidase-1 (DHP-1) (Sus scrofa, UniProt P22412); test: Sensitivity Assay Against Dihydropeptidase-1 (DHP-1); conditions: pig, DHP-1 enzyme extracted from hog kidney
T1 sequence (P22412 17-384): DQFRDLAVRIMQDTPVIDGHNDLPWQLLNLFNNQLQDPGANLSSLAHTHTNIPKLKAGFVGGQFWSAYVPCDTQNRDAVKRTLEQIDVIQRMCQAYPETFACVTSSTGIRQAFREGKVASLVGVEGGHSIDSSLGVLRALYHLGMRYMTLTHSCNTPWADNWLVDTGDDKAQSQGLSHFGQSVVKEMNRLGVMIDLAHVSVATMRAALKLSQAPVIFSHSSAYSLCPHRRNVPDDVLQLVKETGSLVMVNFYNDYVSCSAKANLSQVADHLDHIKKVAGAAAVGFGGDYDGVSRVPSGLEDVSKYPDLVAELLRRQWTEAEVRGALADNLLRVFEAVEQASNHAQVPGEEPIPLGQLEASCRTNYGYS

[2] = Test of Pharmacokinetics in Animals (rats); format: in vivo; conditions: rat, 20 mg/kg
Method: The pharmacokinetics of the carbapenem derivatives of the present invention was determined using mice. Each of the compounds of Examples 13 and 14 and meropenem (a positive control) was dissolved in distilled water, and mice were orally administered (PO) or subcutaneously injected (SC) at a dosage of 40 mg/kg body weight (I.C.R mice, weighing 22 to 25 g, 4 mice/group). Blood samples were withdrawn from mice tails using heparinated capillaries at 10 min., 20 min., 30 min., 45 min., 1 hour, 2 hours, 3 hours and 4 hours after the administration.
Standard antibiotic samples were prepared by serial two-fold dilution with control blood. Agar plates were prepared with Müller-Hinton agar medium containing 6.7% sheep blood and 1% Streptococcus pyogenes 77A culture solution, and the diluted standard and blood samples were added to wells formed on the plates. The plate was stored at 4° C. for 1 hour to allow the sample to spread, and incubated at 37° C. for 18 hours. PK (pharmacokinetic) change indicators (AUC, Tmax, Cmax and T1/2) of the test compound concentration remaining in the mouse blood over time were assayed over a set period.
Then, pharmacokinetical assay (amount of medicament administered was 20 mg/kg) was carried out as above using rats.

[3] = test system: Staphylococcus pyogenes 77A; test: Determination of Protection Dose (PD50) in Infected Animal Model; format: in vivo; conditions: mice infected intraperitoneally with Staphylococcus pyogenes 77A; compound injected intraperitoneally 1 hour after the infection
Method: In order to get the lethal dose (LD100) of bacteria, […] pyogenes 77A and Escherichia coli 078 were each diluted by 10^2˜10^9 times. […] For a main experiment, 3 to 4 week-old SPF ICR male mice were divided into 4 groups each of 8 to 10 mice, and fasted for 24 hours before a test. The solutions of […] pyogenes 77A and Escherichia coli 078 were concentrated to a level that was 2 to 10 times of LD100, and the concentrated […] pyogenes 77A solution mixed with 10% horse serum and the concentrated Escherichia coli 078 solution mixed with 5% hog gastric mucin were each injected intraperitoneally into the mice of each group to induce whole body infection.
The serially diluted solutions of the compound of Example 14 or meropenem (5 different concentrations) were injected intraperitoneally into the infected mice 1 hour after the infection. All of the mice in the control group injected with physiological salt solution died within 48 hours. The number of survived mouse in each group injected with antibacterial material, were counted to determine PD50, and the 95% confidence interval thereof was calculated employing Probit method.

[4] = target: T1, Dihydropeptidase-1 (DHP-1)
Acute Toxicity Test = test: Acute Toxicity Test
Method: The acute toxicity of the compound of Example 14 was tested using several groups of ICR mice each of 10 mice.

SMILES	half-life at 500 μg/ml [1]	AUC ([2]; whole blood, rats, SC, read-out: AUC (area under blood-medicament concentration curve till 24 hours after administration))	Cmax ([2]; whole blood, rats, SC, read-out: Cmax)	half-life ([2]; whole blood, rats, SC, read-out: T1/2 (half time of blood-medicament concentration) (converted))	Tmax ([2]; whole blood, rats, SC, read-out: Tmax)	PD50 [3]	T1/2 (time when the concentration of the medicament become the half) [4]	AUC, times higher than meropenem ([2]; in vivo)	increase in T1/2 than meropenem ([2]; in vivo)	AUC (area under blood-medicament concentration curve till 24 hours after administration) ([2]; in vivo, po)	Cmax ([2]; in vivo, po)	T1/2 (half time of blood-medicament concentration) ([2]; in vivo, po)	Tmax ([2]; in vivo, po)	absorption through the oral route ([2]; in vivo, po)	AUC (area under blood-medicament concentration curve till 24 hours after administration) ([2]; in vivo, sc)	Cmax ([2]; in vivo, sc)	T1/2 (half time of blood-medicament concentration) ([2]; in vivo, sc)	Tmax ([2]; in vivo, sc)	death (Acute Toxicity Test; ICR mice, 500, 1,000 and 2,000 mg/kg intraperitoneally, 7 days)	LD50 (Acute Toxicity Test; ICR mice, intraperitoneally injected, observed for 7 days)
C[C@@H](O)[C@H]1C(=O)N2C(C(=O)O)=C(S[C@@H]3CN[C@H](C(=O)N(C)C)C3)[C@H](C)[C@H]12 [Meropenem, reference compound]	1100 min	2050 ng·h/mL	3920 ng/mL	18.6 min	15 min	9.13 mg/kg	–	–	–	–	–	–	–	–	–	–	–	–	–	–
COc1ccc(CN2CC(SC3=C(C(=O)[O-])N4C(=O)[C@H]([C@@H](C)O)[C@H]4[C@H]3C)C2)cc1.[K+] [Exam. 14, Potassium(1R,5S,6S)-2-[1-(4-methoxybenzyl)-azetidine-3-yl-thio]-6-[(1R)-1-hydroxylethyl]-1-methylcarbapen-2-em-3-carboxylate]	–	–	–	–	–	3.05 mg/kg	19.88	17 times	more than 2 times	330 ng·h/mL	200 ng/mL	304 min	42.6 min	absorbed through the oral route to a significant extent	34580 ng·h/mL	35850 ng/mL	41.4 min	22.2 min	no mice died	higher than 2,000 mg/kg
